Measurements as given in ChEMBL document CHEMBL1156608, “Synthesis of stable and selective inhibitors of human galectins-1 and -3” (Bioorg Med Chem, 2008).

Experiments:
Galectin-3 [1] = target: T1, Galectin-3 (Homo sapiens, UniProt P17931); test: Binding affinity to galectin 3
Galectin-1 [2] = target: T2, Galectin-1 (Homo sapiens, UniProt P09382); test: Binding affinity to galectin 1
Galectin-3 [3] = target: T1, Galectin-3; test: Inhibition of recombinant galectin 3 in human O type red blood cells by hemagglutinination assay relative to galactose
Galectin-1 [4] = target: T2, Galectin-1; test: Inhibition of recombinant galectin 1 in human O type red blood cells by hemagglutinination assay relative to galactose
Galectin-3 [5] = target: T1, Galectin-3; test: Inhibition of recombinant galectin 3 in human O type red blood cells by hemagglutinination assay relative to lactose
Galectin-1 [6] = target: T2, Galectin-1; test: Inhibition of recombinant galectin 1 in human O type red blood cells by hemagglutinination assay relative to lactose
Galectin-3 [7] = target: T1, Galectin-3; test: Inhibition of galectin 3

T1 sequence (P17931 whole entry): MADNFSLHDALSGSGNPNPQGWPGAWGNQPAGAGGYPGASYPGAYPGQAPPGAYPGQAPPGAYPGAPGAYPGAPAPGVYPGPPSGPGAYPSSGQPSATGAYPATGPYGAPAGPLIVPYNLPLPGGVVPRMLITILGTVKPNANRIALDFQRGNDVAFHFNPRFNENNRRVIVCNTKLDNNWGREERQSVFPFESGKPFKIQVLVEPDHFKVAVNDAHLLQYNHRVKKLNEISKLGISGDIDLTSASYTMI
T2 sequence (P09382 whole entry): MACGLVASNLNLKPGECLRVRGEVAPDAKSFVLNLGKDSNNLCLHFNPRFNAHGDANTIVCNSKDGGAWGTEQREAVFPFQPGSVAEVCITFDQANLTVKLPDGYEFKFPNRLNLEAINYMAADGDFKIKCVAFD

Molecule	Activity (Galectin-3 [3])	Activity (Galectin-1 [4])	also measured
CO[C@@H]1O[C@H](CO)[C@@H](O[C@@H]2O[C@H](CO)[C@H](O)[C@H](O)[C@H]2O)[C@H](O)[C@H]1O			Activity (Galectin-3 [1]): 220 µM
O=S(=O)(c1ccc2ccccc2c1)[C@@H]1O[C@H](CO)[C@@H](O[C@@H]2O[C@H](CO)[C@H](O)[C@H](O)[C@H]2O)[C@H](O)[C@H]1O			Kd (Galectin-3 [1]): 313 µM; Kd (Galectin-1 [2]): 40 µM
CO[C@@H]1O[C@H](CO)[C@@H](O[C@@H]2O[C@H](CO)[C@H](O)[C@H](O)[C@H]2O)[C@H](O)[C@H]1NC(C)=O			Activity (Galectin-3 [1]): 67 µM
OC[C@@H]1O[C@H](O[C@@H]2[C@@H](O)[C@H](O)[C@@H](n3cc(CS[C@@H]4O[C@H](CO)[C@@H](O[C@@H]5O[C@H](CO)[C@H](O)[C@H](O)[C@H]5O)[C@H](O)[C@H]4O)nn3)O[C@H]2CO)[C@@H](O)[C@H](O)[C@@H]1O	5	2.6	Activity (Galectin-3 [5]): 2.5; Activity (Galectin-1 [6]): 1.3
C=C(C[C@@H]1O[C@H](CO)[C@H](O)[C@H](O)[C@H]1O)c1cccc([N+](=O)[O-])c1	< 10	10	
OC[C@@H]1O[C@H](O[C@@H]2[C@@H](O)[C@H](O)[C@@H](OCCCCCCO[C@@H]3O[C@H](CO)[C@@H](O[C@@H]4O[C@H](CO)[C@H](O)[C@H](O)[C@H]4O)[C@H](O)[C@H]3O)O[C@H]2CO)[C@@H](O)[C@H](O)[C@@H]1O			IC50 (Galectin-3 [7]): 163 µM
COC(=O)/C=C/C[C@@H]1O[C@H](CO)[C@H](O)[C@H](O)[C@H]1O	10	10	
OC[C@@H]1O[C@H](SCC#Cc2ccc(C#CCS[C@@H]3O[C@H](CO)C(O)[C@H](O)[C@H]3O)cc2)[C@@H](O)[C@H](O)[C@@H]1O (single isomer, unassigned)	< 10	20	Activity (Galectin-1 [6]): 10
O=C[C@H](O)[C@@H](O)[C@@H](O)[C@H](O)CO	1	1	
OC[C@@H]1O[C@H](n2cc(CS[C@@H]3O[C@H](CO)[C@H](O)[C@H](O)[C@H]3O)nn2)[C@@H](O)[C@H](O)[C@@H]1O	20	< 10	Activity (Galectin-3 [5]): 10
C#CCS[C@@H]1O[C@H](CO)[C@@H](O[C@@H]2O[C@H](CO)[C@H](O)[C@H](O)[C@H]2O)[C@H](O)[C@H]1O	2.6	1.3	
CC(=O)C[C@@H]1O[C@H](CO)[C@H](O)[C@H](O)[C@H]1O	10	< 10	
COC(=O)/C=C(\C[C@@H]1O[C@H](CO)[C@H](O)[C@H](O)[C@H]1O)c1ccccc1	< 10	160	
O=C(N[C@@H]1[C@H](O)[C@H](CO)O[C@H](S[C@@H]2O[C@H](CO)[C@H](O)[C@H](NC(=O)c3ccc([N+](=O)[O-])cc3)[C@H]2O)[C@H]1O)c1ccc([N+](=O)[O-])cc1			Kd (Galectin-3 [1]): 0.033 µM
COC(=O)Cn1cc(C[C@@H]2O[C@H](CO)[C@H](O)[C@H](O)[C@H]2O)nn1 [TRIAZOLYL GALACTOSIDE]			Kd (Galectin-1 [2]): 5000 µM
OC[C@@H]1O[C@H](SCC#CC#CCS[C@@H]2O[C@H](CO)[C@H](O)[C@H](O)[C@H]2O)[C@@H](O)[C@@H](O)[C@@H]1O	< 10	10	Activity (Galectin-1 [6]): 5
CO[C@@H]1O[C@H](CO)[C@@H](O[C@@H]2O[C@H](CO)[C@H](O)[C@H](NC(=O)c3cc4ccccc4cc3C(=O)O)[C@H]2O)[C@H](O)[C@H]1NC(C)=O			Kd (Galectin-3 [1]): 0.3 µM
OC[C@@H]1O[C@H](O[C@@H]2[C@@H](O)[C@H](O)[C@@H](n3cc(CS[C@@H]4O[C@H](CO)[C@H](O)[C@H](O)[C@H]4O)nn3)O[C@H]2CO)[C@@H](O)[C@H](O)[C@@H]1O	1.3	2.6	Activity (Galectin-3 [5]): 0.7; Activity (Galectin-1 [6]): 1.3

Further lines, with some results ahead:

Activity (Galectin-3 [3])	Activity (Galectin-1 [4])	Molecule	also measured
2.6	1.3	OC[C@@H]1O[C@H](n2cc(CS[C@@H]3O[C@H](CO)[C@@H](O[C@@H]4O[C@H](CO)[C@H](O)[C@H](O)[C@H]4O)[C@H](O)[C@H]3O)nn2)[C@@H](O)[C@H](O)[C@@H]1O	Activity (Galectin-3 [5]): 1.3; Activity (Galectin-1 [6]): 0.7
< 10	10	OC[C@H]1O[C@@H](C/C=C/c2cccc(/C=C/C[C@@H]3O[C@H](CO)[C@H](O)[C@H](O)[C@H]3O)c2)[C@H](O)[C@@H](O)[C@H]1O	Activity (Galectin-1 [6]): 5
10	< 10	C=C(C[C@@H]1O[C@H](CO)[C@H](O)[C@H](O)[C@H]1O)c1ccc(OC)cc1	
< 10	< 10	OC[C@H]1O[C@@H](C/C=C/c2ccccc2)[C@H](O)[C@@H](O)[C@H]1O	
20	< 10	C#CCS[C@@H]1O[C@H](CO)[C@H](O)[C@H](O)[C@H]1O	
5	2.6	OC[C@@H]1O[C@H](O[C@@H]2[C@@H](O)[C@H](O)[C@@H](SCC#CC#CCS[C@@H]3O[C@H](CO)[C@@H](O[C@@H]4O[C@H](CO)[C@H](O)[C@H](O)[C@H]4O)[C@H](O)[C@H]3O)O[C@H]2CO)[C@@H](O)[C@H](O)[C@@H]1O	Activity (Galectin-3 [5]): 2.5; Activity (Galectin-1 [6]): 1.3
1	1	LACTOSE, ANHYDROUS	
< 10	< 10	C/C=C/[C@@H]1O[C@H](CO)[C@H](O)[C@H](O)[C@H]1O	
